According to PubChem BioAssay (NCI):
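Exposure lasted 48 hours, with cells grown in 96-well plates and compounds tested at five concentrations. GI50: concentration for 50% inhibition of growth. Definition used: TGI = concentration required for complete inhibition of growth.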

What was measured:
Assay in all cases: inhibition of tumour cell growth, NCI panel, 48 h
OVCAR-8 ovarian = test system: OVCAR-8 ovarian
OVCAR-4 ovarian = test system: OVCAR-4 ovarian
TK-10 renal = test system: TK-10 renal
MOLT-4 leukemia = test system: MOLT-4 leukemia
OVCAR-5 ovarian = test system: OVCAR-5 ovarian
SK-OV-3 ovarian = test system: SK-OV-3 ovarian
HL-60(TB) leukemia = test system: HL-60(TB) leukemia
U251 CNS = test system: U251 CNS
NCI/ADR-RES ovarian = test system: NCI/ADR-RES ovarian

Structure (SMILES) | TGI (OVCAR-8 ovarian) | TGI (OVCAR-4 ovarian) | TGI (TK-10 renal) | TGI (MOLT-4 leukemia) | TGI (OVCAR-5 ovarian) | TGI (SK-OV-3 ovarian) | TGI (HL-60(TB) leukemia) | TGI (U251 CNS) | TGI (NCI/ADR-RES ovarian) | GI50 (OVCAR-8 ovarian) | GI50 (OVCAR-4 ovarian) | GI50 (TK-10 renal) | GI50 (MOLT-4 leukemia) | GI50 (SK-OV-3 ovarian) | GI50 (HL-60(TB) leukemia) | GI50 (U251 CNS) | GI50 (NCI/ADR-RES ovarian) | GI50 (OVCAR-5 ovarian)
COc1ccc2c(c1)[n+](=O)c(C(=O)C/C(=N/OCCCc1ccccc1)C(=O)NC13CC4CC(CC(C4)C1)C3)c(C)n2[O-] | > 100 µM | > 100 µM | > 100 µM | > 100 µM | > 100 µM | > 100 µM | > 100 µM | > 100 µM |  |  |  |  |  |  |  |  |  | 
CNC(=O)C1CCc2nnc(-c3ccccc3)n21 (configuration not stated) |  | > 100 µM | > 100 µM | > 100 µM |  | > 100 µM | > 100 µM | > 100 µM |  |  |  |  |  |  |  |  |  | 
COc1ccc2nc3c(C(=O)NCCN(C)C)cccc3nc2c1 | > 100 µM | 29.6 µM | 34.3 µM | > 100 µM | 81.3 µM | 47.4 µM | > 100 µM | 29.5 µM |  |  |  |  |  |  |  |  |  | 
CC(C)(CO)N1CCN(C(=S)Nc2ccccc2)CC1 | > 100 µM | > 100 µM | > 100 µM |  | > 100 µM | > 100 µM |  | > 100 µM | > 100 µM |  |  |  |  |  |  |  |  | 
C/C(CC(=O)Nc1cc(C)ccc1C)=N\NC(=O)c1ccncc1 | > 100 µM |  | > 100 µM | > 100 µM | > 100 µM | > 100 µM | > 100 µM | > 100 µM |  |  |  |  |  |  |  |  |  | 
Nc1c(-c2ccc(Cl)cc2)[n+]([O-])c2ccccc2[n+]1[O-] | > 100 µM | > 100 µM | > 100 µM | > 100 µM | > 100 µM | > 100 µM | > 100 µM | > 100 µM |  |  |  |  |  |  |  |  |  | 
Nc1nc(N(Cc2ccccc2)c2ccccc2)c2cn[nH]c2n1 | > 100 µM | > 100 µM | > 100 µM | > 100 µM |  | > 100 µM | 6.6 µM | > 100 µM |  | 6.01 µM | 6.37 µM | 4.72 µM | 3.21 µM | 3.73 µM | 1.57 µM | 4.35 µM |  | 
O=C(CC1(O)C(=O)Nc2c(Cl)ccc(Cl)c21)c1ccc(F)cc1 (configuration not stated) | > 100 µM | 97.9 µM | > 100 µM | 95.6 µM | > 100 µM | > 100 µM | 58.2 µM | > 100 µM |  |  |  |  |  |  |  |  |  | 
Cc1cc(Cl)cc2c1NC(=O)C2(O)CC(=O)c1ccco1 (configuration not stated) | > 100 µM | 23.9 µM | > 100 µM | 81.2 µM | > 100 µM | > 100 µM |  | > 100 µM | > 100 µM |  |  |  |  |  |  |  |  | 
CC(SC(=S)N1CCOCC1)c1cc2oc(=O)n(C)c2cc1Cl (configuration not stated) | > 100 µM | > 100 µM | > 100 µM | > 100 µM | > 100 µM | > 100 µM | > 100 µM | > 100 µM |  |  |  |  |  |  |  |  |  | 
Cc1cc(N(CCC#N)CCC#N)ccc1/C=C1\N=C(c2cc([N+](=O)[O-])ccc2Cl)N(c2cccc(Cl)c2)C1=O | > 100 µM | > 100 µM | > 100 µM | > 100 µM | > 100 µM | > 100 µM | > 100 µM | > 100 µM |  |  |  |  |  |  |  |  |  | 
CC[C@@]1(c2ccccc2)C2=C(CC(C)(C)CC2=O)Nc2[nH]ncc21 | > 100 µM | > 100 µM | > 100 µM | > 100 µM | > 100 µM | > 100 µM |  | > 100 µM | > 100 µM | > 100 µM | > 100 µM | > 100 µM | > 100 µM | > 100 µM |  | > 100 µM | > 100 µM | > 100 µM
O/N=C/c1ncccc1C1OCCO1 | > 100 µM | > 100 µM | > 100 µM | > 100 µM | > 100 µM | > 100 µM | > 100 µM | > 100 µM |  |  |  |  |  |  |  |  |  | 
C[C@@H]1OC(=O)N2CCCC(=C3SCCCS3)C12 (some centres not stated) | > 100 µM | > 100 µM | > 100 µM | > 100 µM | > 100 µM | > 100 µM |  | > 100 µM |  |  |  |  |  |  |  |  |  | 
Cn1c2ccccc2c2ccc3c(c21)C(=O)c1ccccc1C3=O | 61.6 µM | 69.7 µM | 39.1 µM |  | > 100 µM | 61.9 µM | 10.8 µM | 34.9 µM | 45.4 µM |  |  |  |  |  |  |  |  | 
O=S(=O)(NC1=NCCN1C(=S)SN1CCn2c1nsc2=S)c1cccc(Cl)c1 | > 100 µM | 54.6 µM | 28.5 µM | > 100 µM | 39.2 µM |  | 80.5 µM | 27.8 µM | 69.3 µM | 26.4 µM | 22.2 µM | 11.5 µM | 12.8 µM |  | 13.1 µM | 13.6 µM | 21.4 µM | 19.7 µM
Cc1cc(-c2cnn3c(NCC4CC(C)(O)C4)cc(Oc4cccnc4)nc23)ccc1C(=O)NC1CC1 (configuration not stated) | > 100 µM |  | > 100 µM |  | > 100 µM | > 100 µM | > 100 µM | > 100 µM | > 100 µM | 2.41 µM |  | 1.98 µM |  | 2.69 µM | 1.25 µM | 4.18 µM | > 100 µM | > 100 µM
COc1ccc(N2C(=O)/C(=C/c3ccc(N(CCC#N)CCC#N)cc3C)N=C2c2cc([N+](=O)[O-])ccc2Cl)cc1 | 45.7 µM | > 46.4 µM | > 63.1 µM | 53.5 µM | > 63.1 µM | > 63.1 µM | 26.6 µM | 43.3 µM |  |  |  |  |  |  |  |  |  | 
O=C1c2ccccc2C(=O)N1CCc1ncc[nH]1 | > 100 µM |  | > 100 µM | > 100 µM | > 100 µM |  |  |  | > 100 µM |  |  |  |  |  |  |  |  | 
C/C(O)=C(\N=O)C(=O)Nc1ccc(Cl)cc1Cl | > 100 µM | > 100 µM | > 100 µM | > 100 µM | > 100 µM | > 100 µM | > 100 µM | > 100 µM |  |  |  |  |  |  |  |  |  | 
Cc1c(C(=O)C/C(=N/NC(=O)C[N+](C)(C)C)C(=O)Nc2ccc(Cl)cc2)[n+](=O)c2ccccc2n1O | > 100 µM | > 100 µM | > 100 µM | > 100 µM | > 100 µM |  | > 100 µM | > 100 µM |  |  |  |  |  |  |  |  |  | 
O=C(CC1(O)C(=O)Nc2ccccc21)c1ccncc1 (configuration not stated) |  | > 100 µM |  | > 100 µM | > 100 µM | > 100 µM | > 100 µM | > 100 µM |  |  |  |  |  |  |  |  |  | 
CCOC(=O)/C(C#N)=C/c1[nH]c(C(=O)OCc2ccccc2)c(C)c1C | > 100 µM | > 100 µM | > 100 µM | > 100 µM | > 100 µM | > 100 µM | > 100 µM | > 100 µM |  |  |  |  |  |  |  |  |  | 
COC1(OC)CC2OC1C1N=NN(C(=O)OC(C)(C)C)C21 (configuration not stated) |  | > 100 µM |  | > 100 µM | > 100 µM | > 100 µM | 81.6 µM | > 100 µM |  |  |  |  |  |  |  |  |  | 
